Experimental data reported in patent US11590139B2, “Substituted aminopurine compounds, compositions thereof, and methods of treatment therewith” (Signal Pharmaceuticals, LLC, priority 2014, dated 2023).
pIC50: −log10 of the molar value.

Test system: Lox-IMVI melanoma cell line
Assay: Lox-IMVI anti-proliferative assay (growth inhibition, Cell Titer-Glo)
Type: cell-based, human
Details: Homo sapiens; IC50 activity level in the cell-based Lox-IMVI anti-proliferative assay; read-out: Activity
How it was run: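 IC50 values reflect the concentration giving 50% of DMSO-control luminescence after 72 h of treatment, fitted with a four-parameter logistic model. Cells were cultured in RPMI + 10% FBS with compound from 0.5 nM to 10 μM.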

| pIC50 | Compound |
| --- | --- |
| < 6.00 | NC(=O)[C@H]1CC[C@@H](n2c(Nc3cc(Cl)ccc3F)nc3cnc(N[C@@H]4CCC[C@H]4O)nc32)CC1 [Example 262, (1S,4s)-4-(8-(5-chloro-2-fluorophenylamino)-2-((1R,2R)-2-hydroxycyclopentylamino)-9H-purin-9-yl)cyclohexanecarboxamide] |
| < 6.00 | NC(=O)[C@H]1CC[C@@H](n2c(Nc3cccc(Cl)c3F)nc3cnc(N[C@@H]4CCC[C@H]4O)nc32)CC1 [Example 263, (1S,4s)-4-(8-(3-chloro-2-fluorophenylamino)-2-((1R,2R)-2-hydroxycyclopentylamino)-9H-purin-9-yl)cyclohexanecarboxamide] |
| < 6.00 | NC(=O)[C@H]1CC[C@@H](n2c(Nc3ccc(F)c(F)c3F)nc3cnc(N[C@@H]4CCC[C@H]4O)nc32)CC1 [Example 264, (1S,4s)-4-(2-((1R,2R)-2-hydroxycyclopentylamino)-8-(2,3,4-trifluorophenylamino)-9H-purin-9-yl)cyclohexanecarboxamide] |
| < 6.00 | NC(=O)[C@H]1CC[C@@H](n2c(Nc3cc(F)c(Cl)cc3F)nc3cnc(N[C@@H]4CCC[C@H]4O)nc32)CC1 [Example 265, (1S,4s)-4-(8-(4-chloro-2,5-difluorophenylamino)-2-((1R,2R)-2-hydroxycyclopentylamino)-9H-purin-9-yl)cyclohexanecarboxamide] |
| < 6.00 | NC(=O)[C@H]1CC[C@@H](n2c(Nc3c(F)cc(F)cc3F)nc3cnc(N[C@H]4CCC[C@@H]4O)nc32)CC1 [Example 266, (1R,4s)-4-(2-((1S,2S)-2-hydroxycyclopentylamino)-8-(2,4,6-trifluorophenylamino)-9H-purin-9-yl)cyclohexanecarboxamide] |
| < 6.00 | NC(=O)[C@H]1CC[C@@H](n2c(Nc3c(F)cccc3F)nc3cnc(N[C@H]4CCC[C@@H]4O)nc32)CC1 [Example 267, (1R,4s)-4-(8-(2,6-difluorophenylamino)-2-((1S,2S)-2-hydroxycyclopentylamino)-9H-purin-9-yl)cyclohexanecarboxamide] |
| < 6.00 | NC(=O)[C@H]1CC[C@@H](n2c(Nc3c(Cl)cccc3Cl)nc3cnc(N[C@H]4CCC[C@@H]4O)nc32)CC1 [Example 268, (1R,4s)-4-(8-(2,6-dichlorophenylamino)-2-((1S,2S)-2-hydroxycyclopentylamino)-9H-purin-9-yl)cyclohexanecarboxamide] |
| < 6.00 | NC(=O)[C@H]1CC[C@@H](n2c(Nc3c(F)cc(Cl)cc3F)nc3cnc(N[C@H]4CCC[C@@H]4O)nc32)CC1 [Example 269, (1R,4s)-4-(8-(4-chloro-2,6-difluorophenylamino)-2-((1S,2S)-2-hydroxycyclopentylamino)-9H-purin-9-yl)cyclohexanecarboxamide] |
| < 6.00 | NC(=O)[C@H]1CC[C@@H](n2c(Nc3c(Cl)cc(Cl)cc3Cl)nc3cnc(N[C@H]4CCC[C@@H]4O)nc32)CC1 [Example 270, (1R,4s)-4-(2-((1S,2S)-2-hydroxycyclopentylamino)-8-(2,4,6-trichlorophenylamino)-9H-purin-9-yl)cyclohexanecarboxamide] |
| 6.00 to 6.30 | NC(=O)[C@H]1CC[C@@H](n2c(Nc3c(F)cc(Cl)cc3Cl)nc3cnc(N[C@H]4CCC[C@@H]4O)nc32)CC1 [Example 271, (1R,4s)-4-(8-(2,4-dichloro-6-fluorophenylamino)-2-((1S,2S)-2-hydroxycyclopentylamino)-9H-purin-9-yl)cyclohexanecarboxamide] |
| < 6.00 | NC(=O)[C@H]1CC[C@@H](n2c(Nc3c(Cl)cc(F)cc3Cl)nc3cnc(N[C@H]4CCC[C@@H]4O)nc32)CC1 [Example 272, (1R,4s)-4-(8-(2,6-dichloro-4-fluorophenylamino)-2-((1S,2S)-2-hydroxycyclopentylamino)-9H-purin-9-yl)cyclohexanecarboxamide] |
| < 6.00 | NC(=O)[C@H]1CC[C@@H](n2c(Nc3c(F)ccc(Cl)c3F)nc3cnc(N[C@H]4CCC[C@@H]4O)nc32)CC1 [Example 273, (1R,4s)-4-(8-(3-chloro-2,6-difluorophenylamino)-2-((1S,2S)-2-hydroxycyclopentylamino)-9H-purin-9-yl)cyclohexanecarboxamide] |
| > 6.60 | NC(=O)[C@H]1CC[C@@H](n2c(Nc3c(Cl)cc(Cl)cc3Cl)nc3cnc(N[C@@H]4CCOC[C@H]4F)nc32)CC1 [Example 274, (1S,4s)-4-(2-((3S,4R)-3-fluorotetrahydro-2H-pyran-4-ylamino)-8-(2,4,6-trichlorophenylamino)-9H-purin-9-yl)cyclohexanecarboxamide] |
| 6.30 to 6.60 | NC(=O)[C@H]1CC[C@@H](n2c(Nc3c(F)cccc3F)nc3cnc(N[C@@H]4CCOC[C@H]4F)nc32)CC1 [Example 275, (1S,4s)-4-(8-(2,6-difluorophenylamino)-2-((3S,4R)-3-fluorotetrahydro-2H-pyran-4-ylamino)-9H-purin-9-yl)cyclohexanecarboxamide] |
| > 6.60 | NC(=O)[C@H]1CC[C@@H](n2c(Nc3c(F)cc(F)cc3F)nc3cnc(N[C@@H]4CCOC[C@H]4F)nc32)CC1 [Example 276, (1S,4s)-4-(2-((3S,4R)-3-fluorotetrahydro-2H-pyran-4-ylamino)-8-(2,4,6-trifluorophenylamino)-9H-purin-9-yl)cyclohexanecarboxamide] |
| < 6.00 | NC(=O)[C@H]1CC[C@@H](n2c(Nc3c(F)cc(F)cc3F)nc3cnc(N[C@H]4CCOC[C@@H]4F)nc32)CC1 [Example 277, (1R,4s)-4-(2-((3R,4S)-3-fluorotetrahydro-2H-pyran-4-ylamino)-8-(2,4,6-trifluorophenylamino)-9H-purin-9-yl)cyclohexanecarboxamide] |
| > 6.60 | N#Cc1cc(Cl)c(Nc2nc3cnc(NC4CCOCC4)nc3n2[C@H]2CC[C@@H](C(N)=O)CC2)c(Cl)c1 [Example 278, (1s,4s)-4-(8-(2,6-dichloro-4-cyanophenylamino)-2-(tetrahydro-2H-pyran-4-ylamino)-9H-purin-9-yl)cyclohexanecarboxamide] |
| < 6.00 | NC(=O)[C@H]1CC[C@@H](n2c(Nc3c(F)cc(F)cc3F)nc3cnc(N[C@H]4C[C@H](O)C4)nc32)CC1 [Example 279, (1s,4s)-4-(2-((1r,3r)-3-hydroxycyclobutylamino)-8-(2,4,6-trifluorophenylamino)-9H-purin-9-yl)cyclohexanecarboxamide] |
| < 6.00 | NC(=O)[C@H]1CC[C@@H](n2c(Nc3c(Cl)cccc3Cl)nc3cnc(N[C@H]4C[C@H](O)C4)nc32)CC1 [Example 280, (1s,4s)-4-(8-(2,6-dichlorophenylamino)-2-((1r,3r)-3-hydroxycyclobutylamino)-9H-purin-9-yl)cyclohexanecarboxamide] |
| < 6.00 | NC(=O)[C@H]1CC[C@@H](n2c(Nc3c(F)cccc3Cl)nc3cnc(N[C@H]4C[C@H](O)C4)nc32)CC1 [Example 281, (1s,4s)-4-(8-(2-chloro-6-fluorophenylamino)-2-((1R,3r)-3-hydroxycyclobutylamino)-9H-purin-9-yl)cyclohexanecarboxamide] |
| < 6.00 | NC(=O)[C@H]1CC[C@@H](n2c(Nc3c(F)cc(F)cc3Cl)nc3cnc(N[C@H]4C[C@H](O)C4)nc32)CC1 [Example 282, (1s,4s)-4-(8-(2-chloro-4,6-difluorophenylamino)-2-((1R,3r)-3-hydroxycyclobutylamino)-9H-purin-9-yl)cyclohexanecarboxamide] |
| < 6.00 | NC(=O)[C@H]1CC[C@@H](n2c(Nc3c(F)cc(Cl)cc3F)nc3cnc(N[C@H]4C[C@H](O)C4)nc32)CC1 [Example 283, (1s,4s)-4-(8-(4-chloro-2,6-difluorophenylamino)-2-((1r,3r)-3-hydroxycyclobutylamino)-9H-purin-9-yl)cyclohexanecarboxamide] |
| < 6.00 | NC(=O)[C@H]1CC[C@@H](n2c(Nc3c(Cl)cc(F)cc3Cl)nc3cnc(N[C@H]4C[C@H](O)C4)nc32)CC1 [Example 284, (1s,4s)-4-(8-(2,6-dichloro-4-fluorophenylamino)-2-((1r,3r)-3-hydroxycyclobutylamino)-9H-purin-9-yl)cyclohexanecarboxamide] |
| < 6.00 | NC(=O)[C@H]1CC[C@@H](n2c(Nc3ccc(Cl)c(F)c3F)nc3cnc(N[C@H]4C[C@H](O)C4)nc32)CC1 [Example 285, (1s,4s)-4-(8-(4-chloro-2,3-difluorophenylamino)-2-((1R,3r)-3-hydroxycyclobutylamino)-9H-purin-9-yl)cyclohexanecarboxamide] |
| < 6.00 | NC(=O)[C@H]1CC[C@@H](n2c(Nc3c(F)ccc(Cl)c3F)nc3cnc(N[C@H]4C[C@H](O)C4)nc32)CC1 [Example 286, (1s,4s)-4-(8-(3-chloro-2,6-difluorophenylamino)-2-((1r,3r)-3-hydroxycyclobutylamino)-9H-purin-9-yl)cyclohexanecarboxamide] |
| < 6.00 | NC(=O)[C@H]1CC[C@@H](n2c(Nc3cc(F)cc(Cl)c3F)nc3cnc(N[C@H]4C[C@H](O)C4)nc32)CC1 [Example 287, (1s,4s)-4-(8-(3-chloro-2,5-difluorophenylamino)-2-((1R,3r)-3-hydroxycyclobutylamino)-9H-purin-9-yl)cyclohexanecarboxamide] |
| 6.30 to 6.60 | NC(=O)[C@H]1CC[C@@H](n2c(Nc3c(F)cc(F)cc3F)nc3cnc(NC4CCC(F)(F)CC4)nc32)CC1 [Example 288, (1s,4s)-4-(2-(4,4-difluorocyclohexylamino)-8-(2,4,6-trifluorophenylamino)-9H-purin-9-yl)cyclohexanecarboxamide] |
| < 6.00 | NC(=O)[C@H]1CC[C@@H](n2c(Nc3c(F)cccc3F)nc3cnc(NC4CCC(F)(F)CC4)nc32)CC1 [Example 289, (1s,4s)-4-(2-(4,4-difluorocyclohexylamino)-8-(2,6-difluorophenylamino)-9H-purin-9-yl)cyclohexanecarboxamide] |
| 6.00 to 6.30 | NC(=O)[C@H]1CC[C@@H](n2c(Nc3ccc(Cl)c(F)c3F)nc3cnc(NC4CCC(F)(F)CC4)nc32)CC1 [Example 290, (1s,4s)-4-(8-(4-chloro-2,3-difluorophenylamino)-2-(4,4-difluorocyclohexylamino)-9H-purin-9-yl)cyclohexanecarboxamide] |
